Entries after “also recorded” stand apart in the source; their conditions may differ.
Assays:
[1] = system: living microbes (eukaryotes and prokaryotes); test: Toxicity and viability of cells after staining; type: cell-based
Excerpt: We also explored the possibility of using L.Zn/L.Zn.α-CD as the staining agent for prokaryotes (Gram +ve and Gram −ve bacterial cells). […] As expected stained cells for Gram +ve bacteria appeared longer as compared to those of the stained Gram −ve bacteria. The difference in the staining intensity for two different bacteria with the L.Zn.α-CD (Scheme 2) could be much better understood after going into the depth of cell biology of each bacterial cells and the detailed biochemistry involved while staining; besides, difference in cell structure and cell wall composition of the respective bacteria. […] Changes on the cell surfaces on binding of the dye, L.Zn (Scheme 1, Formula 1A) were also evident from the SEM images recorded for Gram −ve and Gram +ve bacteria, in absence and presence of staining agent (FIGS. 11C to 11F). Difference in the contrasts in the SEM images of the sample surfaces also signifies the non-homogeneous chemical nature of the sample surface. Relatively brighter cell exterior for Gram −ve bacteria, as compared to the Gram +ve one indicates the accumulation of higher negative charge on the extra-cellular surface. […] The growth profile of Eukaryotic Yeast cells (Saccharomyces cerevisiae) and Prokaryotic bacterial cells ([…]) in an aqueous culture medium in absence and presence of L.Zn (Scheme 1, Formula 1A) are shown in FIG. 12. Change in absorbance (at λmax=600 nm) vs time (t) was plotted up to 30 h; as no appreciable change in growth was observed thereafter. […] FIGS. 12a, 12c and 12e show the actual growth curve of Saccharomyces cerevisiae, Pseudomonas fluorescence and Bacillus megaterium, respectively with time. While, FIGS. 12b, 12d and 12f show relative build up of ATP in cytoplasm with time for Saccharomyces cerevisiae, Pseudomonas fluorescence and Bacillus megaterium, respectively in presence of L.Zn (Scheme 1, Formula 1A) (D1) and L.Zn.α-CD (Scheme 2) (D2). […]

[2] = system: Yeast cells (Saccharomyces cerevisiae); test: Staining of Yeast cells, light microscopy and SEM; type: cell-based
Experimental: The isolates of Saccharomyces sp. were cultured in GYE (glucose yeast extract agar) media, Bacillus sp. in Nutrient broth, and Pseudomonas sp. in King's B medium for 24 hour at 37° C. […] of this was taken and was allowed to incubate at 30 to 40° C. along with 100 μl of L.Zn (Scheme 1, Formula 1A) (1.16×10^−4 M) solution. The samples were fixed overnight at room temperature 25-30° C. with 2% (v/v) glutaraldehyde in 0.1 M phosphate buffer at pH 7.5. The samples were then washed with 0.1 M phosphate buffer (pH 7.5) at room temperature 25-30° C. for 1 hour. Post-fixation was carried out in 2% (w/v) osmium tetroxide (OsO4) in the same buffer and was washed once with 0.1 M phosphate buffer for 20 minutes. Then, the water was removed by a graded water-ethanol series; 25% ethanol for 15 min, 50% ethanol for 15 min, 75% ethanol for 30 min, 90% ethanol for 60 min, absolute alcohol for 30 min. The specimens were rinsed in buffer and coated with gold in a sputter coater (Polaron SC7620) prior to microscopy. The material was examined in a Scanning Electron Microscope (SEM) LEO 1430 VP at an accelerating Voltage of 15 kV.
The isolates of Saccharomyces sp. were cultured in GYE (glucose yeast extract agar) media, Bacillus sp. in Nutrient broth, and Pseudomonas sp. in King's B medium for 24 hour at 37° C. 1001 of this was taken and was allowed to incubate at room temperature along with 1001 of [L.Zn]=1.16×10^−4M solution (pH 7.2, 10 mM HEPES buffer solution). The samples were fixed overnight at 25 to 35° C. with 2% (v/v) glutaraldehyde in 0.1 M phosphate buffer at pH 7.5. The samples were then; washed with 0.1 M phosphate buffer (pH 7.5) at 25 to 35° C. for 1 hour. Post-fixation was carried out in 2% (w/v) osmium tetroxide (OsO4) in the same buffer and was washed once with 0.1 M phosphate buffer for 20 minutes. Then, the water was removed by a graded water-ethanol series; 25% ethanol for 15 min, 50% ethanol for 15 min, 75% ethanol for 30 min, 90% ethanol for 60 min, absolute alcohol for 30 min. The specimens were rinsed in buffer and coated with gold in a sputter coater (Polaron SC7620) prior to microscopy. The material was examined in a scanning electron microscope (SEM) LEO 1430 VP at an accelerating Voltage of 15 kV.
We have therefore, been able to use the receptor molecule, L.Zn (Scheme 1, Formula 1A) for staining Eukaryotic cells. Yeast cells were exposed to the receptor molecule L.Zn (Scheme 1, Formula 1A) (1.16×10^−4 M) for 20 min or L.Zn-CD (Scheme 2) (([L.Zn]=0.5×10^−3 M [α-CD]=2.92×10^−3 M) for 2 min followed by subsequent washing with water mixtures and then viewed under a light microscope (AXIO IMAGER-Carl Zeiss).
Ethanol is known to act as a dehydrator and a good fixative of biological samples. […] This confirms the binding of the ATP ions of the cell surface to L.Zn (Scheme 1, Formula 1A) as the plausible reason for the observed staining. […] This observation could be explained on the basis of the reversible binding of ATP, produced in situ in the Yeast cells.

Structure (SMILES): CN(C)c1ccc(N=Nc2ccc(S(=O)(=O)N3CCCNCCNCCCNCC3)cc2)cc1.O=[N+]([O-])[O-].O=[N+]([O-])[O-].[Zn+2] [L.Zn]
- growth of stained cells in their respective media ([1]; after staining): stained cells were found to grow in their respective media
- toxicity to living cells ([1]; eukaryotes and prokaryotes, cell proliferation and growth after staining): non-toxic; also recorded: non toxic
- viability of stained cells, hanging drop in concavity slide ([1]; light microscope, until 3 h): cell growth, cell division, as well as their motility could be observed
- color of Yeast cells after treatment ([2]; L.Zn 0.116 mM, light microscopy): pink-violet
- growth of colonies streaked on nutrient agar plates after incubation with sensor ([2]; Saccharamyces species in GYE media, sensor 1.0×10^−4 M, 25° C., 10 mins): colonies of the test microbes grew
- control experiments: change in color of Yeast cells ([2]; control treatment of cells): no such change in color was observed
- destaining of stained Yeast cells by citrate (reversible binding) ([2]; excess (50 mole equivalent) of citrate ion): became colorless
- stability of staining after washing ([2]; washing with water/ethanol (70/30, v/v)): stable

— patent publication US20130130306A1, “ZN (II) BASED COLORIMETRIC SENSOR AND PROCESS FOR THE PREPARATION THEREOF” (COUNCIL OF SCIENTIFIC & INDUSTRIAL RESEARCH, priority 2010, published 2013)
